According to patent publication US20170166555A1, “FUNCTIONALISED AND SUBSTITUTED INDOLES AS ANTI-CANCER AGENTS” (Novogen Limited, priority 2013, published 2017):
Like-named read-outs stand apart in the source and are kept apart here.

Key:
Experiment in all cases: Anti-proliferative assay, cell-titre luminescent reagent, 72 h (GVK-BIO)
Type in all cases: cell-based
[1] = system: PC3 prostate cancer cells
Method: (§1) The ability of compounds 4001, 4002, 4008, 4010, 4011, 4013-4015, 4018, 4026, 4045-4113 and 4115-4127 to inhibit the proliferation of cancer cells representative of neuroblastoma, melanoma, prostate cancer, colorectal cancer, non-small cell lung carcinoma, and triple negative breast cancer was assessed. These studies were conducted by contract research (GVK-BIO). Briefly, a pre-determined number of cells as calculated from cell growth assays for each of the cell lines employed were seeded into their respective culture medium (using ATCC culture parameters—http://www.atcc.org) and cultured for 24 h at 37° C. and 5% CO2 in 96-well culture plates. Once attached, each cell line was then exposed to various concentrations of each respective analogue (30, 3, 0.3 and 0.03 μM for compounds in Tables 2, 3 and 4; 30, 10, 3, 1, 0.3 and 0.1 μM for compounds in Table 5), cultured for a further 72 h and exposed to cell-titre luminescent reagent (100 μL/well) for a further 30 min). Luminescence was captured using an EnVision multilabel reader and the data for each analogue concentration compared against no treatment control. For compounds in Tables 2-4, semi-log plots of Percent of Control versus concentration were prepared and IC50 determined using linear regression analysis. For compounds in Table 5, cell viability was normalized to control (vehicle alone) and dose-response curves, and half maximal effective concentration (EC50) values were determined using Graph Pad Prism 6 (nonlinear regression sigmoidal dose-response variable slope).

[2] = system: SK-N-SH neuroblastoma cells; details: Homo sapiens
Method: as §1

[3] = system: MDA-MB-231 triple negative breast cancer cells; details: Homo sapiens
Method: as §1

[4] = system: DU145 prostate cancer cells; details: Homo sapiens
Method: as §1

SK-Mel-28 melanoma cells = details: Homo sapiens
Method: as §1

[5] = system: A549 non-small cell lung carcinoma cells; details: Homo sapiens, read-out: IC50/μM Lung (NSLC) A549
Method: as §1

[6] = system: CaCo2 colorectal cancer cells; details: Homo sapiens
Method: as §1

[7] = 30, 3, 0.3 and 0.03 μM, linear regression (Tables 2-4)
[8] = SK-N-SH, 30, 3, 0.3 and 0.03 μM, linear regression (Tables 2-4)
[9] = MDA-MB-231, 72 h, 30, 3, 0.3 and 0.03 μM, linear regression (Tables 2-4)
[10] = DU-145, 72 h, 30, 3, 0.3 and 0.03 μM, linear regression (Tables 2-4)
[11] = SK-MEL-28, 72 h, 30, 3, 0.3 and 0.03 μM, linear regression (Tables 2-4)
[12] = A549, 72 h, 30, 3, 0.3 and 0.03 μM, linear regression (Tables 2-4)
[13] = Caco-2, 72 h, 30, 3, 0.3 and 0.03 μM, linear regression (Tables 2-4)
[14] = 30, 10, 3, 1, 0.3 and 0.1 μM, nonlinear regression (Table 5)
[15] = SK-N-SH, 30, 10, 3, 1, 0.3 and 0.1 μM, nonlinear regression (Table 5)
[16] = MDA-MB-231, 72 h, 30, 10, 3, 1, 0.3 and 0.1 μM, nonlinear regression (Table 5)
[17] = DU-145, 72 h, 30, 10, 3, 1, 0.3 and 0.1 μM, nonlinear regression (Table 5)
[18] = SK-MEL-28, 72 h, 30, 10, 3, 1, 0.3 and 0.1 μM, nonlinear regression (Table 5)
[19] = A549, 72 h, 30, 10, 3, 1, 0.3 and 0.1 μM, nonlinear regression (Table 5)
[20] = Caco-2, 72 h, 30, 10, 3, 1, 0.3 and 0.1 μM, nonlinear regression (Table 5)

Row | Compound | IC50 [1, 7] [µM] | IC50 [2, 8] [µM] | IC50 [3, 9] [µM] | IC50 [4, 10] [µM] | IC50 (SK-Mel-28 melanoma cells; [11]) [µM] | IC50 [5, 12] [µM] | IC50 [6, 13] [µM] | IC50 [1, 14] [µM] | IC50 [2, 15] [µM] | IC50 [3, 16] [µM] | IC50 [4, 17] [µM] | IC50 (SK-Mel-28 melanoma cells; [18]) [µM] | IC50 [5, 19] [µM] | IC50 [6, 20] [µM]
1 | COc1ccc(NC(=O)c2ccc(Nc3ccc4c(c3)c(C)c(C)n4CCCN(C)C)cc2)cc1 [Compound 4105, 4-((1-(3-(dimethylamino)propyl)-2,3-dimethyl-1H-indol-5-yl)amino)-N-(4-methoxyphenyl)benzamide] | 3.7 | 3.4 | 2.7 | 3.6 | 2.6 | 3.6 | 2.6 |  |  |  |  |  |  | 
2 | COc1ccc(CCN2CCN(C(=O)c3ccc4c(c3)c(C)c(C)n4CCCN3CCN(C)CC3)CC2)cc1 [Compound 4121, (2,3-dimethyl-1-(3-(4-methylpiperazin-1-yl)propyl)-1H-indol-5-yl)(4-(4-methoxyphenethyl)piperazin-1-yl)methanone] | > 30 | 13.6 | 13.2 | > 30 | 14.7 | 15.7 | > 30 |  |  |  |  |  |  | 
3 | CN(C)CCCn1ccc2cc(Cc3ccc(C(=O)Nc4ccc(F)cc4)cc3)ccc21 [Compound 4077, 4-((1-(3-(dimethylamino)propyl)-1H-indol-5-yl)methyl)-N-(4-fluorophenyl)benzamide] | 2.8 | 3.1 | 3.4 | 3.2 | 2.7 | 3.3 | 3.3 |  |  |  |  |  |  | 
4 | Cc1c(C)n(CCCN(C)C)c2ccc(Nc3cccc(C(=O)Nc4cccc(F)c4)c3)cc12 [Compound 4075, 3-((1-(3-(dimethylamino)propyl)-2,3-dimethyl-1H-indol-5-yl)amino)-N-(3-fluorophenyl)benzamide] | 4.5 | 2.6 | 2.6 | 3 | 2.7 | 2.9 | 3.3 |  |  |  |  |  |  | 
5 | COc1ccc(NC(=O)c2ccc(Cc3ccc4c(c3)c(C)c(C)n4CCCN(C)C)cc2)cc1 [Compound 4083, 4-((1-(3-(dimethylamino)propyl)-2,3-dimethyl-1H-indol-5-yl)methyl)-N-(4-methoxyphenyl)benzamide] |  |  |  |  |  |  |  | 13.2 | 3.3 | 13.1 | 5.1 | 4.7 | 11.2 | 11.9
6 | Cc1c(C)n(CCCN(C)C)c2ccc(Oc3cccc(C(=O)Nc4cccc(F)c4)c3)cc12 [Compound 4064] | 2.6 | 2.4 | 3.3 | 3.4 | 2.7 | 3.5 | 3.8 |  |  |  |  |  |  | 
7 | Cc1c(C)n(CCCN(C)C)c2ccc(CN3CCN(CCc4ccc(F)cc4)CC3)cc12 [Compound 4109, 3-(5-((4-(4-fluorophenethyl)piperazin-1-yl)methyl)-2,3-dimethyl-1H-indol-1-yl)-N,N-dimethylpropan-1-amine] |  |  |  |  |  |  |  | 9.5 | 3.7 | 3.6 | 5.3 | 1 | 6.5 | 9.1
8 | CN(C)CCCn1ccc2cc(Cc3cccc(C(=O)Nc4ccc(F)cc4)c3)ccc21 [Compound 4045, 3-((1-(3-(dimethylamino)propyl)-1H-indol-5-yl)methyl)-N-(4-fluorophenyl)benzamide] | 5.7 | 3.8 | 2.6 | 5.5 | 3.7 | 3.7 | 5.2 |  |  |  |  |  |  | 
9 | COc1cccc(NC(=O)c2cccc(Oc3ccc4c(ccn4CCCN(C)C)c3)c2)c1 [Compound 4060] | 5 | 3.6 | 2.8 | 4 | 2.8 | 4.2 | 4 |  |  |  |  |  |  | 
10 | CN(C)CCCn1ccc2cc(Nc3ccc(C(=O)Nc4ccccc4)cc3)ccc21 [Compound 4026, 4-((1-(3-(dimethylamino)propyl)-1H-indol-5-yl)amino)-N-phenylbenzamide] | 6.1 | 3.7 | 3.5 | 5 | 5.9 | 3.8 | 15.4 |  |  |  |  |  |  | 
11 | Cc1c(C)n(CCCN2CCN(C)CC2)c2ccc(C(=O)N3CCN(CCc4ccc5c(c4)OCO5)CC3)cc12 [Compound 4123, (4-(2-(benzo[d][1,3]dioxol-5-yl)ethyl)piperazin-1-yl)(2,3-dimethyl-1-(3-(4-methylpiperazin-1-yl)propyl)-1H-indol-5-yl)methanone] | > 30 | 12.3 | 16.3 | > 30 | 16.8 | 15.6 | > 30 |  |  |  |  |  |  | 
12 | CN(C)CCCn1ccc2cc(Oc3cccc(C(=O)Nc4cccc(F)c4)c3)ccc21 [Compound 4059, 3-((1-(3-(dimethylamino)propyl)-1H-indol-5-yl)oxy)-N-(3-fluorophenyl)benzamide] | > 30 | 11.3 | 13.2 | > 30 | 15.5 | 13.4 | > 30 |  |  |  |  |  |  | 
13 | COc1ccc(NC(=O)c2cccc(Nc3ccc4c(ccn4CCCN(C)C)c3)c2)cc1 [Compound 4068, 3-((1-(3-(dimethylamino)propyl)-1H-indol-5-yl)amino)-N-(4-methoxyphenyl)benzamide] | 14.6 | 3.5 | 2.8 | 5.4 | 2.7 | 2.9 | > 30 |  |  |  |  |  |  | 
14 | Cc1c(C)n(CCCN(C)C)c2ccc(Oc3cccc(C(=O)Nc4ccc5c(c4)OCO5)c3)cc12 [Compound 4063, N-(benzo[d][1,3]dioxol-5-yl)-3-((1-(37(dimethylamino)propyl)-2,3-dimethyl-1H-indol-5-yl)oxy)benzamide] | 4.9 | 4.2 | 3.7 | 3.6 | 3.8 | 3 | 9.6 |  |  |  |  |  |  | 
15 | COc1cccc(NC(=O)c2cccc(Cc3ccc4c(ccn4CCCN(C)C)c3)c2)c1 [Compound 4049, 3-((1-(3-(dimethylamino)propyl)-1H-indol-5-yl)methyl)-N-(3-methoxyphenyl)benzamide] | 3.4 | 3.3 | 3.4 | 3.3 | 3.1 | 3 | 3.2 |  |  |  |  |  |  | 
16 | Cc1c(C)n(CCCN(C)C)c2ccc(Nc3cccc(C(=O)Nc4ccc(F)cc4)c3)cc12 [Compound 4072, 3-((1-(3-(dimethylamino)propyl)-2,3-dimethyl-1H-indol-5-yl)amino)-N-(4-fluorophenyl)benzamide] | 3.8 | 1.7 | 1.7 | 2.9 | 3 | 1.9 | 2 |  |  |  |  |  |  | 
17 | COc1cccc(NC(=O)c2ccc(Oc3ccc4c(ccn4CCCN(C)C)c3)cc2)c1 [Compound 4092, 4-((1-(3-(dimethylamino)propyl)-1H-indol-5-yl)oxy)-N-(3-methoxyphenyl)benzamide] |  |  |  |  |  |  |  | 38.3 | 13.8 | 22.6 | 16.7 | 13.3 | 8.3 | 17.1
18 | CN(C)CCCn1ccc2cc(Oc3cccc(C(=O)Nc4ccc5c(c4)OCO5)c3)ccc21 [Compound 4058, N-(benzo[d][1,3]dioxol-5-yl)-3-((1-(3-(dimethylamino)propyl)-1H-indol-5-yl)oxy)benzamide] | 7.2 | 3.4 | 3.8 | 4.7 | 2.7 | 4.7 | 9.7 |  |  |  |  |  |  | 
